Where two headings read alike, the source gives them in different places.
What was measured:
Test in all cases: Post-emergence efficacy, Method A
Assay type in all cases: in vivo
[1] = test system: Echinochloa crus-galli (ECHCG); settings: evaluated after 13 days; for pest or weed control at 500 g/ha: Echinochloa crus-galli, post-emergence, 312 h
Protocol: (§1) Seeds of a variety of test species were sown in standard soil in pots. After cultivation for 14 days (post-emergence) under controlled conditions in a glasshouse (at 24/16° C., day/night; 14 hours light; 65% humidity), the plants were sprayed with an aqueous spray solution derived from the dissolution of the technical active ingredient formula (I) in a small amount of acetone and a special solvent and emulsifier mixture referred to as IF50 (11.12% Emulsogen EL360 TM+44.44% N-methylpyrrolidone+44.44% Dowanol DPM glycol ether), to create a 50 g/I solution which was then diluted to required concentration using 0.25% or 1% Empicol ESC70 (Sodium lauryl ether sulphate)+1% ammonium sulphate as diluent. The test plants were then grown in a glasshouse under controlled conditions (at 24/16° C., day/night; 14 hours light; 65% humidity) and watered twice daily. After 13 days the test was evaluated (100=total damage to plant; 0=no damage to plant).
(§2) Ipomoea hederacea (IPOHE), Euphorbia heterophylla (EPHHL), Chenopodium album (CHEAL), Amaranthus palmeri (AMAPA), Lolium perenne (LOLPE), Digitaria sanguinalis (DIGSA), Eleusine indica (ELEIN), Echinochloa crus-galli (ECHCG), Setaria faberi (SETFA)

[2] = test system: Amaranthus palmeri (AMAPA); settings: evaluated after 13 days; for pest or weed control at 500 g/ha: Amaranthus palmeri, post-emergence, 312 h
Protocol: as §1, §2

[3] = test system: Digitaria sanguinalis (DIGSA); settings: evaluated after 13 days; for pest or weed control at 500 g/ha: Digitaria sanguinalis, post-emergence, 312 h
Protocol: as §1, §2

[4] = test system: Lolium perenne (LOLPE); settings: evaluated after 13 days; for pest or weed control at 500 g/ha: Lolium perenne, post-emergence, 312 h
Protocol: as §1, §2

[5] = test system: Setaria faberi (SETFA); settings: evaluated after 13 days; for pest or weed control at 500 g/ha: Setaria faberi, post-emergence, 312 h
Protocol: as §1, §2

[6] = test system: Euphorbia heterophylla (EPHHL); settings: evaluated after 13 days; for pest or weed control at 500 g/ha: Euphorbia heterophylla, post-emergence, 312 h
Protocol: as §1, §2

[7] = test system: Chenopodium album (CHEAL); settings: evaluated after 13 days; for pest or weed control at 500 g/ha: Chenopodium album, post-emergence, 312 h
Protocol: as §1, §2

[8] = test system: Ipomoea hederacea (IPOHE); settings: evaluated after 13 days; for pest or weed control at 500 g/ha: Ipomoea hederacea, post-emergence, 312 h
Protocol: as §1, §2

[9] = test system: Eleusine indica (ELEIN); settings: evaluated after 13 days; for pest or weed control at 500 g/ha: Eleusine indica, post-emergence, 312 h
Protocol: as §1, §2

[10] = Application rate 500 g/Ha, 100=total damage to plant, 0=no damage to plant, read-out: Control of weed species after post-emergence application, ECHCG
[11] = Application rate 500 g/Ha, 100=total damage to plant, 0=no damage to plant, read-out: Control of weed species after post-emergence application, AMAPA
[12] = Application rate 500 g/Ha, 100=total damage to plant, 0=no damage to plant, read-out: Control of weed species after post-emergence application, DIGSA
[13] = Application rate 500 g/Ha, 100=total damage to plant, 0=no damage to plant, read-out: Control of weed species after post-emergence application, LOLPE
[14] = Application rate 500 g/Ha, 100=total damage to plant, 0=no damage to plant, read-out: Control of weed species after post-emergence application, SETFA
[15] = Application rate 500 g/Ha, 100=total damage to plant, 0=no damage to plant, read-out: Control of weed species after post-emergence application, EPHHL
[16] = Application rate 500 g/Ha, 100=total damage to plant, 0=no damage to plant, read-out: Control of weed species after post-emergence application, CHEAL
[17] = Application rate 500 g/Ha, 100=total damage to plant, 0=no damage to plant, read-out: Control of weed species after post-emergence application, IPOHE
[18] = Application rate 500 g/Ha, 100=total damage to plant, 0=no damage to plant, read-out: Control of weed species after post-emergence application, ELEIN
[19] = Application Rate 500 g/Ha, Method A, read-out: Control of weed species after post-emergence application, ECHCG (100=total damage to plant; 0=no damage to plant)
[20] = Application Rate 500 g/Ha, Method A, read-out: Control of weed species after post-emergence application, AMAPA (100=total damage to plant; 0=no damage to plant)
[21] = Application Rate 500 g/Ha, Method A, read-out: Control of weed species after post-emergence application, DIGSA (100=total damage to plant; 0=no damage to plant)
[22] = Application Rate 500 g/Ha, Method A, read-out: Control of weed species after post-emergence application, LOLPE (100=total damage to plant; 0=no damage to plant)
[23] = Application Rate 500 g/Ha, Method A, read-out: Control of weed species after post-emergence application, SETFA (100=total damage to plant; 0=no damage to plant)
[24] = Application Rate 500 g/Ha, Method A, read-out: Control of weed species after post-emergence application, EPHHL (100=total damage to plant; 0=no damage to plant)
[25] = Application Rate 500 g/Ha, Method A, read-out: Control of weed species after post-emergence application, CHEAL (100=total damage to plant; 0=no damage to plant)
[26] = Application Rate 500 g/Ha, Method A, read-out: Control of weed species after post-emergence application, IPOHE (100=total damage to plant; 0=no damage to plant)
[27] = Application Rate 500 g/Ha, Method A, read-out: Control of weed species after post-emergence application, ELEIN (100=total damage to plant; 0=no damage to plant)
[28] = Application rate 500 g/Ha, 100=total damage to plant, 0=no damage to plant
[29] = Application Rate 500 g/Ha, Method A

SMILES	pest or weed control at 500 g/ha [1, 10] [%]	pest or weed control at 500 g/ha [2, 11] [%]	pest or weed control at 500 g/ha [3, 12] [%]	pest or weed control at 500 g/ha [4, 13] [%]	pest or weed control at 500 g/ha [5, 14] [%]	pest or weed control at 500 g/ha [6, 15] [%]	pest or weed control at 500 g/ha [7, 16] [%]	pest or weed control at 500 g/ha [8, 17] [%]	pest or weed control at 500 g/ha [9, 18] [%]	other results
COC(=O)C[n+]1ccc(-c2ncccn2)cn1 [Compound A2, methyl 2-(4-pyrimidin-2-ylpyridazin-1-ium-1-yl)acetate bromide]	50	60	40	0	80	90	20	10	30	
O=S(=O)([N-]CC[n+]1ccc(-c2ncccn2)cn1)C(F)(F)F [Compound A225]										pest or weed control at 500 g/ha [1, 19]: 30%; pest or weed control at 500 g/ha [2, 20]: 100%; pest or weed control at 500 g/ha [3, 21]: 60%; pest or weed control at 500 g/ha [4, 22]: 30%; pest or weed control at 500 g/ha [5, 23]: 30%; pest or weed control at 500 g/ha [6, 24]: 100%; pest or weed control at 500 g/ha [7, 25]: 90%; pest or weed control at 500 g/ha [8, 26]: 70%; pest or weed control at 500 g/ha [9, 27]: 90%
COc1cnc(-c2cc[n+](CCCS(=O)(=O)[O-])nc2)cn1 [Compound A78]	30	0	40	20	40	20	10	20	30	
CCOP(=O)(CC[n+]1ccc(-c2cnccn2)cn1)OCC [Compound A8]	10	10	20	0	20	10	10	10	20	
O=C(O)CC[n+]1ccc(-c2cnc(C(F)(F)F)cn2)cn1 [Compound A121]	40	100	40	30	30	80	80	20	20	
CNC(=O)c1cnc(-c2cc[n+](CCC(=O)[O-])nc2)nc1 [Compound A93]	80	90	100	80	100	40	80	20	100	
Cc1n[n+](CCC(=O)O)ccc1-c1ncccn1.[Cl-] [Compound A133]										Control of weed species after post-emergence application, ECHCG [1, 28]: 70; Control of weed species after post-emergence application, AMAPA [2, 28]: 60; Control of weed species after post-emergence application, DIGSA [3, 28]: 70; Control of weed species after post-emergence application, LOLPE [4, 28]: 40; Control of weed species after post-emergence application, SETFA [5, 28]: 90; Control of weed species after post-emergence application, EPHHL [6, 28]: 20; Control of weed species after post-emergence application, CHEAL [7, 28]: 40; Control of weed species after post-emergence application, IPOHE [8, 28]: 20; Control of weed species after post-emergence application, ELEIN [9, 28]: 90
O=C([O-])CC[n+]1ccc(-c2ncccc2F)cn1 [Compound A67]	80	60	60	40	70	80	50	20	70	
O=C(O)CC[n+]1ccc(-c2ccnc(C(F)(F)F)n2)cn1 [Compound A118]	40	80	90	90	70	90	80	60	70	
CS(=O)(=O)c1cnc(-c2cc[n+](CCC(=O)[O-])nc2)nc1 [Compound A46]	30	70	50	20	50	60	10	10	50	
O=S(=O)([O-])CC[n+]1ccc(-c2cncc(C(F)(F)F)n2)cn1 [Compound A110]	50	100	40	50	50	80	100	80	90	
N#Cc1ccnc(-c2cc[n+](CCO)nc2)n1 [Compound A186]										pest or weed control at 500 g/ha [1, 19]: 30%; pest or weed control at 500 g/ha [2, 20]: 70%; pest or weed control at 500 g/ha [3, 21]: 60%; pest or weed control at 500 g/ha [4, 22]: 10%; pest or weed control at 500 g/ha [5, 23]: 60%; pest or weed control at 500 g/ha [6, 24]: 30%; pest or weed control at 500 g/ha [7, 25]: 70%; pest or weed control at 500 g/ha [8, 26]: 30%; pest or weed control at 500 g/ha [9, 27]: 50%
O=S(=O)(O)CC[n+]1ccc(-c2cccnc2)cn1 [Compound A179]										Control of weed species after post-emergence application, ECHCG (100=total damage to plant; 0=no damage to plant) [1, 29]: 40; Control of weed species after post-emergence application, AMAPA (100=total damage to plant; 0=no damage to plant) [2, 29]: 30; Control of weed species after post-emergence application, DIGSA (100=total damage to plant; 0=no damage to plant) [3, 29]: 50; Control of weed species after post-emergence application, LOLPE (100=total damage to plant; 0=no damage to plant) [4, 29]: 10; Control of weed species after post-emergence application, SETFA (100=total damage to plant; 0=no damage to plant) [5, 29]: 60; Control of weed species after post-emergence application, EPHHL (100=total damage to plant; 0=no damage to plant) [6, 29]: 60; Control of weed species after post-emergence application, CHEAL (100=total damage to plant; 0=no damage to plant) [7, 29]: 30; Control of weed species after post-emergence application, IPOHE (100=total damage to plant; 0=no damage to plant) [8, 29]: 20; Control of weed species after post-emergence application, ELEIN (100=total damage to plant; 0=no damage to plant) [9, 29]: 50

Reference: patent US20220125051A1, “PRE-HARVEST DESICCATION METHOD” (SYNGENTA CROP PROTECTION AG, priority 2019, published 2022)
